Results as given in patent publication US20230227442A1, “HETEROALKYL DIHYDROQUINOLINE SULFONAMIDE COMPOUNDS” (AMGEN INC., priority 2020, published 2023).

Assays:
CYP3A4 = assay: Human CYP 3A4 induction assay (mRNA, cryopreserved human hepatocytes); assay type: in vitro ADME; settings: 72 hours, percent of control (POC); for CYP3A4 mRNA Induct Hu 2 uM POC: 2 uM test compound; for CYP3A4 mRNA Induct Hu 10 uM POC: 10 uM test compound
Experimental: Human CYP 3A4 Induction Assay
Cryopreserved human hepatocytes were seeded in 96-well collagen coated plates at 70,000 cells per well in hepatocyte plating media (HPM, final concentrations: lx Dulbecco's Modified Eagle's Medium, 0.1 μM dexamethasone, 10% fetal bovine serum, lx ITS, 1×PSG) followed by incubation at 37° C. under 5% CO2 and 90% relative humidity for 2 days to allow hepatocytes to form a confluent layer. On Day 3, hepatocytes were treated with either test compound or rifampin (20 μM, positive control for CYP3A induction) prepared in hepatocyte incubation media ((HIM, final concentrations: 1× William's Medium E, 0.1 μM dexamethasone, 1×ITS, 1×PSG). Treatment was performed for 72 hours with either 2 concentrations (2 μM or 10 μM) or a range of concentrations (0.001 μM to 100 μM) of the test compound to obtain full dose-response curve. Fresh media containing the relevant concentrations of the test compound was replaced every day until the samples were processed. After 72 hours of incubation, samples were processed for mRNA analysis using bDNA technology using manufacturer's instructions (Affymetrix, Fremont, Calif.). Cell viability was tested at the end of the experiment using MTT assay kit (Roche Diagnostics, Basel, Switzerland). Data was analyzed and presented as percent of control (POC) and Emax and EC50 obtained when appropriate according to guidance from Center for Drug Evaluation and Research (CDER), 2006, Guidance for Industry, Drug Interaction Studies—Study Design, Data Analysis, and Implications for Dosing and Labeling.
Cryopreserved human hepatocytes were seeded in 96-well collagen coated plates at 70,000 cells per well in hepatocyte plating media (HPM, final concentrations: lx Dulbecco's Modified Eagle's Medium, 0.1 μM dexamethasone, 10% fetal bovine serum, lx ITS, 1×PSG) followed by incubation at 37° C. under 5% CO2 and 90% relative humidity for 2 days to allow hepatocytes to form a confluent layer. On Day 3, hepatocytes were treated with either test compound or rifampin (20 μM, positive control for CYP3A induction) prepared in hepatocyte incubation media ((HIM, final concentrations: 1× William's Medium E, 0.1 μM dexamethasone, 1×ITS, 1×PSG). Treatment was performed for 72 hours with either 2 concentrations (2 μM or 10 μM) or a range of concentrations (0.001 μM to 100 μM) of the test compound to obtain full dose-response curve. Fresh media containing the relevant concentrations of the test compound was replaced every day until the samples were processed. After 72 hours of incubation, samples were processed for mRNA analysis using bDNA technology using manufacturer's instructions (Affymetrix, Fremont, Calif.). Cell viability was tested at the end of the experiment using MTT assay kit (Roche Diagnostics, Basel, Switzerland). Data was analyzed and presented as percent of control (POC) and Emax and EC50 obtained when appropriate, as described in Halladay, J. et al, 2012, An “all-inclusive” 96-well cytochrome P450 induction method: Measuring enzyme activity, mRNA levels, protein levels, and cytotoxicity from one well using cryopreserved human hepatocytes, Pharmacological and Toxicological Methods, 66:270-275.

Human Nav1.7 = molecular target: T1, Human Nav1.7 (Homo sapiens, UniProt Q15858); assay: Ionworks Barracuda (IWB) automated patch clamp assay; assay type: cell-based; settings: population patch clamp, HEK cells, 4 min compound incubation at -20 mV; read-out: hNaV1.7 IWB-U IC50
T1 construct: expressed in transfected cells; host or cells: Spiking HEK cells (without Kir2.1 transfection)
Experimental: Ionworks Barracuda Automated Patch Clamp Assay (Same Protocol for Both Human and Mouse)
Human Nav1.7 currents were recorded in population patch-clamp mode with the IWB automated electrophysiology system (Molecular Devices, LLC, Sunnyvale, Calif.). Spiking HEK cells (without Kir2.1 transfection) were cultured and prepared for recordings as previously described for IonWorks Quattro testing^1. The external solution consisted of the following (in mM): NaCl 140, KCl 5, CaCl2 2, MgCl2 1, HEPES 10, and glucose 11, pH 7.4, with N-methyl-D-glucamine at 320 mOsmol. The internal solution consisted of the following (in mM): KCl 70, KF 70, MgCl2 0.25, HEDTA 5, and HEPES 10, pH 7.25, with Nmethyl-D-glucamine, 300 mOsmol. From a holding potential of −110 mV, currents were elicited by a train of 26 depolarizations of 150 ms duration to −20 mV at a frequency of 5 Hz. Cells were then clamped to −20 mV for a period of 4 minutes in the presence of a single concentration of test compound. Following this compound incubation period, cells were clamped to −110 mV for three seconds to recover unbound channels and put through the same 26 pulse voltage protocol as above. Peak inward current during the 26th pulse to −20 mV in the presence of compound was divided by the peak inward current evoked by the 26th pulse to −20 mV in the absence of compound to determine percent inhibition. Concentration-response curves of percent inhibition as a function of concentration were generated to calculate IC50 values as described in Kornecook, T. J.; Yin, R.; Altmann, S.; et al. Pharmacologic Characterization of AMG8379, a Potent and Selective Small Molecule Sulfonamide Antagonist of the Voltage-Gated Sodium Channel NaV1. 7. J. Pharmacol. Exp. Ther. 2017, 362, 146-160.

T1 sequence (Q15858 whole entry): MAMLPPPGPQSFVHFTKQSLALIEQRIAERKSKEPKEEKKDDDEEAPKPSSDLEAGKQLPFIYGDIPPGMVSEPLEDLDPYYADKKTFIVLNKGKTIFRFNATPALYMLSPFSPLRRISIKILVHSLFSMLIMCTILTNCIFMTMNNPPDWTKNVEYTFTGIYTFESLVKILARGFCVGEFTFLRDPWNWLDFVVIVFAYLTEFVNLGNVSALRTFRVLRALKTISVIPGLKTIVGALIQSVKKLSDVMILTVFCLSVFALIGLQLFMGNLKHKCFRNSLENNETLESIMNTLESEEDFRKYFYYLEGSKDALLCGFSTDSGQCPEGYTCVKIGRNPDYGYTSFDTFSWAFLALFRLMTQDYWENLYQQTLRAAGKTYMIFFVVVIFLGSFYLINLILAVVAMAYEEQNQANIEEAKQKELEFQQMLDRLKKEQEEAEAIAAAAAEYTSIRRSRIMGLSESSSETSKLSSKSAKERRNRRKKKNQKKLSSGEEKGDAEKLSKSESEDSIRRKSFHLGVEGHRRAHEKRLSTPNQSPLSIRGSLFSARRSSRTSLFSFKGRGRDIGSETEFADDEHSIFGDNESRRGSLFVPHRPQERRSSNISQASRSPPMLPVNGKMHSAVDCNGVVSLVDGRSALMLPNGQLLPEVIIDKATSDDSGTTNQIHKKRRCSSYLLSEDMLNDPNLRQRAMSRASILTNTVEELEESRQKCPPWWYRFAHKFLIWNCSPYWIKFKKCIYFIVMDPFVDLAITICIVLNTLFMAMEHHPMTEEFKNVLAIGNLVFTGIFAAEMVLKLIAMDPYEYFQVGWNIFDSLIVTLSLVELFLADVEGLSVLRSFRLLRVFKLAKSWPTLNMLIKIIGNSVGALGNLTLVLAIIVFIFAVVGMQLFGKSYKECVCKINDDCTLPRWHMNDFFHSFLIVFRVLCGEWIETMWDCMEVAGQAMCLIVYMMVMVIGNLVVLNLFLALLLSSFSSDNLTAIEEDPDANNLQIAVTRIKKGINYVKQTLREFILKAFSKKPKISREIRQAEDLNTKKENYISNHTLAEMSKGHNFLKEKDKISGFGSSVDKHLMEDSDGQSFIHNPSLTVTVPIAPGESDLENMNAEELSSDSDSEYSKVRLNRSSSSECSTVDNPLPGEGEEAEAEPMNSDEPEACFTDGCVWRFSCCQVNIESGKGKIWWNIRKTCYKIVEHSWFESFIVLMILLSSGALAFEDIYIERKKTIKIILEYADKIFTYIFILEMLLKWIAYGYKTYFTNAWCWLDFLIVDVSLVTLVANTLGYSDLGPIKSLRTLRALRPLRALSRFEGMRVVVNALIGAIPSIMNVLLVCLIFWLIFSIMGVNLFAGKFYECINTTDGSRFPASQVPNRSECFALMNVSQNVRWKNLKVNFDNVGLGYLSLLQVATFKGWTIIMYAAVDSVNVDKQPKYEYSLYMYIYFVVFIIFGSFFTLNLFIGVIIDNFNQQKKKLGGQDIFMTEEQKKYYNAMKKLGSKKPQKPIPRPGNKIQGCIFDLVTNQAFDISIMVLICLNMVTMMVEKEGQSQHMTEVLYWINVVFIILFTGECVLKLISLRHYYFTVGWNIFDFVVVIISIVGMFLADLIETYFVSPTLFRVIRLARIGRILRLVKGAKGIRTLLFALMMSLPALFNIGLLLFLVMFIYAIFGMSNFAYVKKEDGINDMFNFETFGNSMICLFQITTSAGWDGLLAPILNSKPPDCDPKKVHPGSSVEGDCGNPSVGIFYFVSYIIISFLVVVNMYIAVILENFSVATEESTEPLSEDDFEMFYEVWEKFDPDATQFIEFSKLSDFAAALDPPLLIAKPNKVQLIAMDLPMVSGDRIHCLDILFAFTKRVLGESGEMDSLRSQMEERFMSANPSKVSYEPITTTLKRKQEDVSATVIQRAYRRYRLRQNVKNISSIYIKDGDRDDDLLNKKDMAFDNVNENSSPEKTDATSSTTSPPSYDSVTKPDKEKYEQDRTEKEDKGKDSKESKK

SMILES | CYP3A4 mRNA Induct Hu 2 uM POC (CYP3A4) | CYP3A4 mRNA Induct Hu 10 uM POC (CYP3A4) | IC50 (Human Nav1.7)
COc1cc(O[C@@H](C)C(F)(F)F)c(F)cc1-n1c(=O)ccc2cc(S(=O)(=O)Nc3ncccn3)ccc21 (atropisomer, axis not shown; (P)) [Example 24, (P)-(S)-1-(5-fluoro-2-methoxy-4-((1,1,1-trifluoropropan-2-yl)oxy)phenyl)-2-oxo-N-(pyrimidin-2-yl)-1,2-dihydroquinoline-6-sulfonamide] | 0.8% | 1.2% | 68 nM
COc1cc(OCC(F)(F)F)c(F)cc1-n1c(=O)c(F)cc2cc(S(=O)(=O)Nc3ccon3)ccc21 (atropisomer, axis not shown; (P)) [Example 25, (P)-3-fluoro-1-(5-fluoro-2-methoxy-4-(2,2,2-trifluoroethoxy)phenyl)-N-(isoxazol-3-yl)-2-oxo-1,2-dihydroquinoline-6-sulfonamide] | 11.5% | 38.0% | 102 nM
COc1cc(SC(F)(F)F)c(F)cc1-n1c(=O)ccc2cc(S(=O)(=O)Nc3ncccn3)c(F)cc21 (atropisomer, axis not shown; (P)) [Example 19, (P)-7-fluoro-1-(5-fluoro-2-methoxy-4-((trifluoromethyl)thio)phenyl)-2-oxo-N-(pyrimidin-2-yl)-1,2-dihydroquinoline-6-sulfonamide] | 17.4% | 49.2% | 29 nM
COc1cc(SC(F)(F)F)ccc1-n1c(=O)ccc2cc(S(=O)(=O)Nc3ccon3)ccc21 (atropisomer, axis not shown; (P)) [Example 23] | 7.4% | 25.1% | 39 nM
COc1nc(SC(F)(F)F)c(F)cc1-n1c(=O)ccc2cc(S(=O)(=O)Nc3ccon3)ccc21 (atropisomer, axis not shown; (P)) [Example 26, (P)-1-(5-fluoro-2-methoxy-6-((trifluoromethyl)thio)pyridin-3-yl)-N-(isoxazol-3-yl)-2-oxo-1,2-dihydroquinoline-6-sulfonamide] | 5.7% | 25.6% | 185 nM
COc1cc(OCCC(F)(F)F)c(F)cc1-n1c(=O)ccc2cc(S(=O)(=O)Nc3ccon3)c(F)cc21 (atropisomer, axis not shown; (P)) [Example 22, (P)-7-fluoro-1-(5-fluoro-2-methoxy-4-(3,3,3-trifluoropropoxy)phenyl)-N-(isoxazol-3-yl)-2-oxo-1,2-dihydroquinoline-6-sulfonamide] | 14.8% | 41.5% | 34 nM

The next compounds have a lower IC50 (Human Nav1.7) than those just listed; values first:

CYP3A4 mRNA Induct Hu 2 uM POC (CYP3A4) | CYP3A4 mRNA Induct Hu 10 uM POC (CYP3A4) | IC50 (Human Nav1.7) | SMILES
20.9% | 54.2% | 11 nM | COc1cc(SC(F)(F)F)c(F)cc1-n1c(=O)ccc2cc(S(=O)(=O)Nc3ccon3)c(F)cc21 (atropisomer, axis not shown; (P)) [Example 7, (P)-7-fluoro-1-(5-fluoro-2-methoxy-4-((trifluoromethyl)thio)phenyl)-N-(isoxazol-3-yl)-2-oxo-1,2-dihydroquinoline-6-sulfonamide]
3.6% | 21.4% | 23 nM | COc1cc(OCC(F)(F)F)c(F)cc1-n1c(=O)ccc2cc(S(=O)(=O)Nc3ccon3)c(F)cc21 [Example 14]
7.8% | 22.2% | 21 nM | COc1cc(OC(F)(F)F)c(F)cc1-n1c(=O)ccc2cc(S(=O)(=O)Nc3ccon3)ccc21 (atropisomer, axis not shown; (P)) [Example 9, (P)-1-(5-fluoro-2-methoxy-4-(trifluoromethoxy)phenyl)-N-(isoxazol-3-yl)-2-oxo-1,2-dihydroquinoline-6-sulfonamide]
41.9% | 76.1% | 14 nM | COc1cc(CCC(F)(F)F)c(F)cc1-n1c(=O)ccc2cc(S(=O)(=O)Nc3ccon3)ccc21 (atropisomer, axis not shown; (P)) [Compound A, (P)-1-(5-fluoro-2-methoxy-4-(3,3,3-trifluoropropyl)phenyl)-N-(1,2-oxazol-3-yl)-2-oxo-1,2-dihydro-6-quinolinesulfonamide, reference compound]
2.6% | 9.5% | 27 nM | COc1cc(O[C@@H](C)C(F)(F)F)c(F)cc1-n1c(=O)ccc2cc(S(=O)(=O)Nc3ccon3)ccc21 (atropisomer, axis not shown; (P)) [Example 18, (P)-(S)-1-(5-fluoro-2-methoxy-4-((1,1,1-trifluoropropan-2-yl)oxy)phenyl)-N-(isoxazol-3-yl)-2-oxo-1,2-dihydroquinoline-6-sulfonamide]
6.1% | 24.5% | 15 nM | COc1cc(SC(F)(F)F)c(F)cc1-n1c(=O)ccc2cc(S(=O)(=O)Nc3ccon3)ccc21 (atropisomer, axis not shown; (P)) [Example 8, (P)-1-(5-fluoro-2-methoxy-4-((trifluoromethyl)thio)phenyl)-N-(isoxazol-3-yl)-2-oxo-1,2-dihydroquinoline-6-sulfonamide]
